Measurements published in patent US20220040092A1, “Ready to use injectable formulations of Micafungin Sodium” (RK Pharma Solutions LLC, priority 2020, published 2022).
Several values for one entry are separate records, joined by “and”; a condition that tells them apart may be missing. Equal values may be shown once. Read-outs that look alike come from different tables or passages of the source. Starred links: 1 amine or outer side, 2 acyl side, 3 side chain; linkers in the order of their positions; H or OH if unused. Positions of bridges follow the written chain, without caps; N, C: chain ends. Non-standard residues stand in square brackets, D forms with d. Residues, ends and D or L forms follow the SMILES beside them. *: point of attachment. hTyr(3S-OH,4S-OH,3'-OSO3H) = N[C@H](C(=O)O)[C@H](O)[C@@H](O)c1ccc(O)c(OS(=O)(=O)O)c1; Orn(4R-OH,5R-OH) = O=C([C@H](C[C@@H](O)[C@@H](O)N[*:3])N[*:1])[*:2]; Pro(3S-OH,4S-Me) = C[C@H]1CN[C@H](C(=O)O)[C@H]1O; X1 = CCCCCOc1ccc(-c2cc(-c3ccc(C(=O)*)cc3)no2)cc1; Gln(3R-OH) = NC(=O)C[C@@H](O)[C@H](N)C(=O)O; Hyp = O=C(O)[C@@H]1C[C@@H](O)CN1

Columns and labels:
[1] = Storage stability of ready-to-use micafungin sodium solution in vials at 2-8° C. (purity and impurities by RRT); assay type: physicochemical; conditions: API (drug substance used)
Experimental: As used herein, “relative retention time” (“RRT”) is calculated by dividing the retention time of the peak of interest by the retention time of the main peak. Any peak with an RRT<1 elutes before the main peak, and any peak with an RRT>1 elutes after the main peak. […]

[2] = cited from earlier work

In the case of `CCCCCOc1ccc(-c2cc(-c3ccc(C(=O)N[C@H]4C[C@@H](O)[C@@H](O)NC(=O)[C@@H]5[C@@H](O)[C@@H](C)CN5C(=O)[C@H]([C@H](O)CC(N)=O)NC(=O)[C@H]([C@H](O)[C@@H](O)c5ccc(O)c(OS(=O)(=O)O)c5)NC(=O)[C@@H]5C[C@@H](O)CN5C(=O)[C@H]([C@@H](C)O)NC4=O)cc3)no2)cc1` [Micafungin sodium, {5-[(1S,2S)-2-[(3S,6S,9S,11R,15S,18S,20R,21R,24S,25S,26S)-3-[(1R)-2-carbamoyl-1-hydroxyethyl]-11,20,21,25-tetrahydroxy-15-[(1R)-1-hydroxyethyl]-26-methyl-2,5,8,14,17,23-hexaoxo-18-[(4-{5-[4-(pentyloxy)phenyl]-1,2-oxazol-3-yl)benzene)amido]-1,4,7,13,16,22-hexaazatricyclo[22.3.0.0.0^9,13]heptacosan-6-yl]-1,2-dihydroxyethyl]-2-hydroxyphenyl} oxidanesulfonic acid] (X1-[Orn(4R-OH,5R-OH)]T[Hyp][hTyr(3S-OH,4S-OH,3'-OSO3H)][Gln(3R-OH)][Pro(3S-OH,4S-Me)]; lactam 1-C), the “Imp at RRT 1.02” value [1] is reported as 0.24, the “Imp at RRT 0.93” value ([1]; listed as API) is reported as 0.64 and 0.58 and the “Imp. E” value ([1]; listed as API) is reported as 0.01 and 0.02. The Purity ([1]; listed as API) was 99.25 and 98.97, the Solubility ([2]; N,N-dimethylformamide) was “freely soluble” and the Solubility ([2]; acetone) was “practically insoluble”. The Solubility ([2]; acetonitrile) was “practically insoluble”, the Solubility ([2]; diethyl ether) was “practically insoluble” and the Solubility ([2]; dimethylsulfoxide) was “freely soluble”. The Solubility ([2]; ethyl alcohol (95%)) was “practically insoluble”, the Solubility ([2]; isotonic sodium chloride solution) was “freely soluble” and the Solubility ([2]; methyl alcohol) was “slightly soluble”. The Solubility ([2]; n-hexane) was “practically insoluble” and the Solubility ([2]; water) was “freely soluble”.
